From PubChem BioAssay (NCI)
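Step 1: Grow cells in 96-well plates. Step 2: Expose to compound for 48 hours at 5 concentrations. Step 3: Interpolate endpoints linearly; if unreached, use highest concentration. The concentration for 50% growth inhibition is given as GI50. TGI is the concentration that stops growth completely.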

What was measured:
Assay in all cases: growth of human tumour cells (NCI), 48 h
NCI-H23 lung = tested on: NCI-H23 lung
SN12C renal = tested on: SN12C renal
SK-OV-3 ovarian = tested on: SK-OV-3 ovarian
SR leukemia = tested on: SR leukemia
MALME-3M melanoma = tested on: MALME-3M melanoma
HOP-62 NSCLC = tested on: HOP-62 NSCLC
NCI/ADR-RES ovarian = tested on: NCI/ADR-RES ovarian
HL-60(TB) leukemia = tested on: HL-60(TB) leukemia
UACC-62 melanoma = tested on: UACC-62 melanoma
MDA-MB-435 = tested on: MDA-MB-435
ACHN renal = tested on: ACHN renal
CAKI-1 renal = tested on: CAKI-1 renal
786-0 renal = tested on: 786-0 renal
NCI-H226 lung = tested on: NCI-H226 lung
A498 renal = tested on: A498 renal
NCI-H460 lung = tested on: NCI-H460 lung
MCF7 breast = tested on: MCF7 breast
SK-MEL-28 melanoma = tested on: SK-MEL-28 melanoma
M14 melanoma = tested on: M14 melanoma
PC-3 prostate = tested on: PC-3 prostate
COLO 205 colon = tested on: COLO 205 colon
RPMI-8226 leukemia = tested on: RPMI-8226 leukemia
UO-31 renal = tested on: UO-31 renal
SNB-75 CNS = tested on: SNB-75 CNS
SF-295 CNS = tested on: SF-295 CNS
HCT-116 colon = tested on: HCT-116 colon
RXF 393 renal = tested on: RXF 393 renal

## CN(C)c1ccc2c(c1)Sc1cc(N(C)C)ccc1N2C(=O)c1ccccc1
NCI-H23 lung
  TGI: > 100 µM
SN12C renal
  GI50: > 100 µM
  TGI: > 100 µM
SK-OV-3 ovarian
  GI50: 54.8 µM
  TGI: > 100 µM
SR leukemia
  GI50: 14.6 µM
  TGI: > 100 µM
MALME-3M melanoma
  GI50: 21.4 µM
  TGI: 77.1 µM
HOP-62 NSCLC
  GI50: 92.4 µM
  TGI: > 100 µM
NCI/ADR-RES ovarian
  GI50: 33.7 µM
  TGI: > 100 µM
HL-60(TB) leukemia
  GI50: 4.5 µM
  TGI: > 100 µM
UACC-62 melanoma
  GI50: 17.5 µM
  TGI: > 100 µM
MDA-MB-435
  GI50: 65 µM
  TGI: > 100 µM
ACHN renal
  GI50: 32.4 µM
  TGI: > 100 µM
CAKI-1 renal
  GI50: 14.7 µM
  TGI: > 100 µM
786-0 renal
  GI50: 32.8 µM
  TGI: > 100 µM
NCI-H226 lung
  GI50: 71.6 µM
  TGI: > 100 µM
A498 renal
  GI50: 32.3 µM
  TGI: > 100 µM
NCI-H460 lung
  GI50: 20.5 µM
  TGI: > 100 µM
MCF7 breast
  GI50: 37 µM
  TGI: > 100 µM
SK-MEL-28 melanoma
  GI50: 43.1 µM
  TGI: > 100 µM
M14 melanoma
  GI50: 75 µM
  TGI: > 100 µM
PC-3 prostate
  GI50: 12.9 µM
  TGI: > 100 µM
COLO 205 colon
  GI50: > 100 µM
  TGI: > 100 µM
RPMI-8226 leukemia
  GI50: 76.1 µM
  TGI: > 100 µM
UO-31 renal
  GI50: 8.23 µM
  TGI: > 100 µM
SNB-75 CNS
  GI50: 15.4 µM
  TGI: 66.3 µM
SF-295 CNS
  GI50: 10.1 µM
  TGI: > 100 µM
HCT-116 colon
  GI50: 25 µM
  TGI: > 100 µM
RXF 393 renal
  GI50: 28.7 µM
  TGI: > 100 µM
